{
  "source": "paper PMC5618157",
  "about": "“The Role of Disulfide Bond Replacements in Analogues of the Tarantula Toxin ProTx-II and Their Effects on Inhibition of the Voltage-Gated Sodium Ion Channel Nav1.7” (Journal of the American Chemical Society, 2017)",
  "origin": "cited, not measured here",
  "key": {"mouse model (analgesia)": {"test_system": "mouse model (analgesia)", "conditions": "injections of ProTx-II", "from_the_text": "Despite these structural studies, much remains unknown about the mechanism of action of ProTx-II on Nav1.7. […] Instead, studies into the interaction of ProTx-II and HwTx-IV with hNav1.7 proposed that both peptides interact with the domain II voltage-sensing domain (VSD), with ProTx-II also trapping the domain IV VSD in the resting configuration.[38] Mutagenesis experiments on ProTx-II by Park and co-workers,[36] and investiga ..."}, "Nav1.7": {"test_system": "Nav1.7", "conditions": "read-out: IC50 against Nav1.7", "from_the_text": "ProTx-II has been the subject of particular interest from researchers as a possible lead for the treatment of chronic nociceptive pain.[4] […] Nav1.7 has been implicated as a target for the treatment of chronic pain after loss-of-function mutations in the corresponding SCN9A gene left their carriers unable to feel pain, with seemingly no ..."}},
  "data": [
    {"substance": "ProTx-II", "values": [
      {"measurement": "analgesia in a mouse model", "setting": "mouse model (analgesia)", "result": "failed to elicit analgesia"},
      {"measurement": "IC50", "setting": "Nav1.7", "result": 0.3, "unit": "nM"}
    ]}
  ]
}
